Earlier results as cited in patent US8507466B2, “Oils enriched with diacylglycerols and phytosterol esters and unit dosage forms thereof for use in therapy” (Enzymotec Ltd., priority 2003, dated 2013).

What was measured:
[1] = tested on: tumor cell growth (LNCaP and HT-29); conditions: compared to cholesterol
LDL = conditions: incubation of LDL with copper ion

| SMILES | decrease in cell growth [1] [%] | increase in apoptosis [1] [fold] | elevation of LDL oxidation (LDL) [%] |
| --- | --- | --- | --- |
| CC[C@H](CC[C@@H](C)[C@H]1CC[C@H]2[C@@H]3CC=C4C[C@@H](O)CC[C@]4(C)[C@H]3CC[C@]12C)C(C)C [beta-sitosterol] | 24 | 4 | – |
| CCCCC/C=C\C/C=C\CCCCCCCC(=O)O [linoleic acid (LA), linoleic acid] | – | – | 22 |
